Measurements as given in US20150190416A1, “FILAGGRIN PRODUCTION PROMOTER, THERAPEUTIC AGENT FOR DISEASES ASSOCIATED WITH REDUCTION IN PRODUCTION OF FILAGGRIN, AND METHOD FOR SCREENING FOR SAID THERAPEUTIC AGENT” (KYOTO UNIVERSITY, priority 2012, published 2015).

Tests used:
FLG monomer = FLG monomer in three-dimensional cultured skin, Western blotting (Example 11); type: cell-based, human; conditions: 1 μM, immunoblotting
Method: In this example, the expression-increasing effect of Compound 1 on FLG monomer was examined by using a three-dimensional cultured skin. The expression of the FLG monomer was confirmed by Western blotting.
In this example, the same procedures as those in the steps 1) to 3) of Example 10 were conducted. It should be noted that as a medicament, D) Comparative Compound 3 (M344) was used, as well as A) Compound 1 and C) Comparative Compound 2 of Example 10.
4) The three-dimensional cultured skin obtained in the same manner as in the steps 1) to 3) of Example 10 was recovered, and was cut into pieces with scissors. Then, 100 μl of Lysis buffer (0.1 M Tris-HCl (pH 9.0), 6 M Urea, 1% 2-mercapto-ethanol, 1% SDS, 1 mM EDTA, and Protease inhibitor cocktail) were added and the cells were homogenized with an electrically powered pestle. The homogenized cells were centrifuged at 15,000 rpm at 4° C. for 20 minutes, and the supernatant was recovered to be used as a sample for measurement. The total protein in the sample was quantified by using a protein assay reagent (Bio-Rad Laboratories, Inc.) according to the manufacturer's protocol. The protein was adjusted so that each sample contained 15 μg protein/lane, and the samples were subjected to electrophoresis by SDS-PAGE (Invitrogen, NuPAE Novex Bis-Tris mini Gel 4 to 12%) under the conditions of 100 V and 2 hours. As a marker, Precision Plus Protein Standards (Bio-Rad Laboratories, Inc.) was used. The proteins separated by the electrophoresis were transferred to a PVDF membrane (blotting), and the expression of FLG monomer was confirmed by using an anti-FLG antibody (Filaggrin AKH1, Santa Crus). At that time, Anti-mouse IgG-HRP (GE Healthcare) was used as a secondary antibody, and Amersham ECL Plus Western Blotting Detection Reagents (GE Healthcare) was used as a color developer.

FLG promoter = assay: Transcription-activating effect on FLG promoter, luciferase assay in NHEK cells (Example 1); type: cell-based, human; conditions: 1 μM (Comparative Compound 2: 1 μM or 0.1 μM), 3 days
Method: In this example, the transcription activity on FLG promoter of an N-quinolylbenzamide derivative (Compound 1) was confirmed by using neonatal normal human epidermal keratinocytes (NHEK cells). The transcription activity of the FLG promoter was measured by luciferase assay.
1) 1.2×10^5 cells/ml of NHEK cells (KURABO INDUSTRIES LTD.) were plated on a 96-well plate at 80 μl/well (9.6×10^3 cells/well), and 100 μl of a culture medium containing a medium for proliferating normal human epidermal keratinocytes (HuMedia-KG2, KURABO INDUSTRIES LTD.) supplemented with human epidermal growth factor (hEGF) (0.1 ng/ml), insulin (10 μg/ml), hydrocortisone (0.5 μg/ml), gentamycin (50 μg/ml), amphotericin B (50 ng/ml), and bovine brain pituitary extract (BPE) (0.4%, v/v) were added to the plate, and the cells were cultured under the conditions of 37° C. and 5% CO2. […]
4) 3 days after the addition of the medicament in the step 3), reagents for luciferase assay (Bright-Glo™ Luciferase Assay System, Promega Corporation) were used and the luciferase activity was measured according to the manufacturer's protocol. […] After standing at rest for two minutes, 70 μl thereof were subjected to the measurement of the absorbance of luciferase.

Structure (SMILES) | production of FLG monomer (FLG monomer) | transcription activity on FLG promoter (FLG promoter) | production of pro-FLG (FLG monomer)
O=C(CCCCCN1C(=O)c2cccc3cccc(c23)C1=O)NO [Comparative Compound 2, 6-(1,3-Dioxo-1H,3H-benzo[de]isoquinolin-2-yl)hexanoic acid hydroxyamide, reference compound] | clear production of FLG monomer was not observed | the transcription activity on FLG promoter was observed | 
CCc1ccc(OCc2ccccc2C(=O)Nc2ccc3nc(C)cc(N)c3c2)cc1.Cl [Compound 1, N-(4-Amino-2-methyl-6-quinolyl)-2-[(4-ethylphenoxy)methyl]benzamide hydrochloride] | clear production of FLG monomer was confirmed | had the transcription activity on FLG promoter | production of a large amount of pro-FLG
